Reference: ChEMBL document CHEMBL4616648, “Irijimasides A-E, Macrolide Glycosides from an Okeania sp. Marine Cyanobacterium” (J Nat Prod, 2020)

Tests used:
[1] = Cytotoxicity against mouse RAW264 cells at 3 to 30 uM by MTT assay; format: cell-based
[2] = organism: Mus musculus; test: Inhibition of RANKL-induced osteoclastogenesis in mouse RAW264 cells assessed as reduction in TRAP activity incubated for 4 days; format: functional, cell-based

| Structure (SMILES) | Activity [1] | inhibition [2] |
| --- | --- | --- |
| C=CCC/C=C/C=C/C1C/C(C)=C/[C@@H](OC)C[C@@H]2O[C@@](O)(CC(O[C@@H]3O[C@@H](C)[C@H](O)[C@@H](O)[C@H]3OC)[C@@H]2C)[C@H](C)C(=O)O1 (stereo not given in full) | Non-Toxic | Dose-dependent effect |
| C=CCC/C=C/C=C/C1C/C(C)=C/[C@@H](OC)C[C@H]2CC(O[C@@H]3O[C@@H](C)[C@H](O)[C@@H](OC)[C@H]3OC)C[C@](O)(O2)[C@H](C)C(=O)O1 (stereo not given in full) | Non-Toxic | Dose-dependent effect |
| C#CCCC/C=C/C=C/C1C/C(C)=C/[C@@H](OC)C[C@@H]2O[C@@](O)(CC(O[C@@H]3O[C@@H](C)[C@H](O)[C@@H](O)[C@H]3OC)[C@@H]2C)[C@H](C)C(=O)O1 (stereo not given in full) | Non-Toxic | Dose-dependent effect |
| C=CCC/C=C/C=C/C1C/C(C)=C/[C@@H](OC)C[C@@H]2O[C@](O)(CC(=O)O1)CC(O[C@@H]1O[C@@H](C)[C@H](O)[C@@H](OC)[C@H]1OC)[C@@H]2C (stereo not given in full) | Non-Toxic | Dose-dependent effect |
| C=CCC/C=C/C=C/C1C/C(C)=C/[C@@H](OC)C[C@@H]2O[C@@](O)(CC(O[C@@H]3O[C@@H](C)[C@H](O)[C@@H](OC)[C@H]3OC)[C@@H]2C)[C@H](C)C(=O)O1 (stereo not given in full) | Non-Toxic | Dose-dependent effect |
